According to patent publication US9056843B2, “Trifluoromethyl-oxadiazole derivatives and their use in the treatment of disease” (NOVARTIS AG, priority 2011, dated 2015):

Columns and labels:
Assay type in all cases: biochemical
[1] = molecular target: Human recombinant full length HDAC6 (Homo sapiens (Human), UniProt Q9UBN7); assay: Test 4: HDAC6 assay; conditions: Test 4; substrate 5 μM acetyl-Gly-Ala-Lys(acetyl)-AMC
Method in brief: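 Baculovirus-expressed full-length recombinant human HDAC6 with 5 μM acetyl-Gly-Ala-Lys(acetyl)-AMC substrate, developed with trypsin 15 min at room temperature.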

[2] = molecular target: Human recombinant HDAC4 (Homo sapiens (Human), UniProt P56524); assay: Test 2: HDAC4 assay (fluorogenic substrate, 5 μM acetyl-Gly-Ala-Lys(ε-trifluoroacetyl)-AMC); conditions: Test 2 (values without asterisk)
Method in brief: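 After the reaction, bovine trypsin (300 nM solution) was added for 15 min at RT to develop the signal; fluorescence read at 360/450 nm. No-enzyme background subtracted; IC50 from 4-parameter logistic fit of dose-response curves.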

[3] = molecular target: Human recombinant full length HDAC1 (Homo sapiens (Human), UniProt Q13547); assay: Test 3: HDAC1 assay; conditions: substrate 5 μM acetyl-Gly-Ala-Lys(acetyl)-AMC
Method in brief: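 Baculovirus-expressed full-length human HDAC1 with 5 μM acetyl-Gly-Ala-Lys(acetyl)-AMC substrate, developed with trypsin 15 min at room temperature.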

Human recombinant HDAC4, sequence (P56524 2-1084): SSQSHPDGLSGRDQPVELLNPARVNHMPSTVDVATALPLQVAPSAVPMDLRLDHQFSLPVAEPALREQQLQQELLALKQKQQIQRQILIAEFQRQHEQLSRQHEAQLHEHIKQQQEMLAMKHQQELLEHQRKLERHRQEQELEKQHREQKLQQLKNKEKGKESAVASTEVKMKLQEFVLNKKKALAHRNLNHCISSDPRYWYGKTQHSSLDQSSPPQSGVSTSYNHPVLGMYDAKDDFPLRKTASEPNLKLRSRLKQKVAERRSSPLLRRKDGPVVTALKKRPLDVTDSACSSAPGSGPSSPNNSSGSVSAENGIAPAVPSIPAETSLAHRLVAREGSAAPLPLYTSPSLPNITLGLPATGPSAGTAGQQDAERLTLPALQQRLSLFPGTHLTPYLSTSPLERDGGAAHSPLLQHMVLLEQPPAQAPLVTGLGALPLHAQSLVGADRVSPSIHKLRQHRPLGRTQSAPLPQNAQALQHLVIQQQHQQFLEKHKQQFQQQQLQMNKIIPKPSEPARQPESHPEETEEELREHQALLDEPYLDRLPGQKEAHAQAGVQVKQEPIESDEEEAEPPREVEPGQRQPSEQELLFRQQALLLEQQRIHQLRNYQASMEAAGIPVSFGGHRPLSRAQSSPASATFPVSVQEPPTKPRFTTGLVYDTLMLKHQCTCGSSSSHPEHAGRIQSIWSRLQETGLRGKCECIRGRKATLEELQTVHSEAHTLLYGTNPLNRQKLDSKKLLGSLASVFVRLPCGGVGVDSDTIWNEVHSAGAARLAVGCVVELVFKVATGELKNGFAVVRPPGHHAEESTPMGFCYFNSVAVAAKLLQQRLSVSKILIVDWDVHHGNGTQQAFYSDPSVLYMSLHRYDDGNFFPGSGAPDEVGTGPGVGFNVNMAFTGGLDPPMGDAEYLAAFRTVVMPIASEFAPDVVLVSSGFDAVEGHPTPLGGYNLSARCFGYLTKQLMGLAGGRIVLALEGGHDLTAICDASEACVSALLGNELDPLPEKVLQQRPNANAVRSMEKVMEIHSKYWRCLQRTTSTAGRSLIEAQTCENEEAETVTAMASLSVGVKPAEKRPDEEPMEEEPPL
Human recombinant full length HDAC1, sequence (Q13547 whole entry): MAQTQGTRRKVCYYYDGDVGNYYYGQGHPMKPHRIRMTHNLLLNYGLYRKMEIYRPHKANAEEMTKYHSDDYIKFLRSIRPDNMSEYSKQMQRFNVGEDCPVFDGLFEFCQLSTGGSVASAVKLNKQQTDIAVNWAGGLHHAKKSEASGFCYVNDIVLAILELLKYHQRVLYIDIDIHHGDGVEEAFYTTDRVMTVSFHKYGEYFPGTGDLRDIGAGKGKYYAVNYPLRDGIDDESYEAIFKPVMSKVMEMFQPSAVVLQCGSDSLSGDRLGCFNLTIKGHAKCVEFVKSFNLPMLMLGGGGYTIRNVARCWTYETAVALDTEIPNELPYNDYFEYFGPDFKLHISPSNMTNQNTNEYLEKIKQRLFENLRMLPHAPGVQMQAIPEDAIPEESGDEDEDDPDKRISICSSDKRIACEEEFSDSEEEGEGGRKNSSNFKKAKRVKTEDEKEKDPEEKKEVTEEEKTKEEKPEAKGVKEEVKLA
Human recombinant full length HDAC6, sequence (Q9UBN7 whole entry): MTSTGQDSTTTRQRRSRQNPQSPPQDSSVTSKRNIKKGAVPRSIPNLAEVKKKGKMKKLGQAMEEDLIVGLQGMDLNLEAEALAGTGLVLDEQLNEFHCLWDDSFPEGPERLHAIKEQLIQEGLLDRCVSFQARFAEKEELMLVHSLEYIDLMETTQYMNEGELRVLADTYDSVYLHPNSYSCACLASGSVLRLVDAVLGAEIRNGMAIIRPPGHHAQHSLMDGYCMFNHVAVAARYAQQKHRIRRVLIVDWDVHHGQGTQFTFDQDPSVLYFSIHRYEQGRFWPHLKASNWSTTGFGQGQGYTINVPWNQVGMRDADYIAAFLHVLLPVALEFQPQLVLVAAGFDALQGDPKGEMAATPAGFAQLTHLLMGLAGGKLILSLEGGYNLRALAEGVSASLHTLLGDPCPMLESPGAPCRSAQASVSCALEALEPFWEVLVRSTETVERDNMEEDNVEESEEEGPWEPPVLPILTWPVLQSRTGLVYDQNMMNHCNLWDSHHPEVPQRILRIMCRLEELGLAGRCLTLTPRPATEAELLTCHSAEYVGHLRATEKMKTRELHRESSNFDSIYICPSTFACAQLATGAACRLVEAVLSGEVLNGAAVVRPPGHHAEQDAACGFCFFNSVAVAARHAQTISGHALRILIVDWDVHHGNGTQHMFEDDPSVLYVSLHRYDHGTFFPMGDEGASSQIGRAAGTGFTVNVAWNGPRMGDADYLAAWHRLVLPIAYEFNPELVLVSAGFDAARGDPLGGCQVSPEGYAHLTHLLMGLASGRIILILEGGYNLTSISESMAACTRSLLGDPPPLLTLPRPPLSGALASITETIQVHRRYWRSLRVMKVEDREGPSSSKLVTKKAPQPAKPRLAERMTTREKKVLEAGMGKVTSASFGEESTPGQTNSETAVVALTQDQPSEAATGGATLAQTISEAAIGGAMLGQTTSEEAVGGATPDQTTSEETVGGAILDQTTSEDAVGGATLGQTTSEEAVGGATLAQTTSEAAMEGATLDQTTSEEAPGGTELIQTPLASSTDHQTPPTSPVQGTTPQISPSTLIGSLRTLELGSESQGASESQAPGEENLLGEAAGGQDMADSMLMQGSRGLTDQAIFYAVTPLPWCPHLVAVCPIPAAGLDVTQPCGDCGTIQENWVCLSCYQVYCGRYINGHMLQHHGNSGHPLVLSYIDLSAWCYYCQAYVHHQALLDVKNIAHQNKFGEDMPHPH

SMILES | IC50 [1] | IC50 [2] | IC50 [3]
C[C@H](CN1CCCCC1)NC(=O)c1ccc(-c2noc(C(F)(F)F)n2)cc1F [Example 129, (R)-2-fluoro-N-(1-(piperidin-1-yl)propan-2-yl)-4-(5-(trifluoromethyl)-1,2,4-oxadiazol-3-yl)benzamide] | 3 µM | 0.013 µM | 9.05 µM
COCCNC(=O)c1ccc(-c2noc(C(F)(F)F)n2)cc1 [Example 16, N-(2-methoxyethyl)-4-(5-(trifluoromethyl)-1,2,4-oxadiazol-3-yl)benzamide] | 6.8 µM | 1.4 µM | > 10 µM
O=C(c1ccc(-c2noc(C(F)(F)F)n2)cc1)N1CCC(O)C1 (stereo not drawn) [Example 54, (3-hydroxypyrrolidin-1-yl)(4-(5-(trifluoromethyl)-1,2,4-oxadiazol-3-yl)phenvyl)methanone] | > 10 µM | 2 µM | > 10 µM
Cc1ccccc1NS(=O)(=O)c1ccc(-c2noc(C(F)(F)F)n2)cc1 [Example 103, N-o-tolyl-4-(5-trifluoromethyl-[1,2,4]oxadiazol-3-yl)-benzenesulfonamide] | 0.7 µM | 0.08 µM | > 10 µM
Cc1cccc(NS(=O)(=O)c2ccc(-c3noc(C(F)(F)F)n3)cc2)c1 [Example 105, N-m-tolyl-4-(5-(trifluoromethyl)-1,2,4-oxadiazol-3-yl)benzenesulfonamide] | 0.47 µM | 0.27 µM | 3.6 µM
CCCCN(C)C[C@@H](C)NC(=O)c1ccc(-c2noc(C(F)(F)F)n2)cc1 [Example 150, (R)—N-(1-(butyl(methyl)amino)propan-2-yl)-4-(5-(trifluoromethyl)-1,2,4-oxadiazol-3-yl)benzamide] | 3.1 µM | 0.0011 µM | 1.2 µM
CC(C)(C)OC(=O)N1CCN(C(=O)c2ccc(-c3noc(C(F)(F)F)n3)cc2)CC1 [Example 55, Tert-butyl 4-(4-(5-(trifluoromethyl)-1,2,4-oxadiazol-3-yl)benzoyl)piperazine-1-carboxylate] | > 10 µM | 2.8 µM | > 10 µM
CCN(CC)CCNC(=O)c1ccc(-c2noc(C(F)(F)F)n2)cc1 [Example 155, N-(2-(diethylamino)ethyl)-4-(5-(trifluoromethyl)-1,2,4-oxadiazol-3-yl)benzamide] | 2.6 µM | 0.012 µM | 2.9 µM
CN(C)C[C@@H](Cc1ccccc1)NC(=O)c1ccc(-c2noc(C(F)(F)F)n2)cc1 [Example 92, (R)—N-(1-(dimethylamino)-3-phenylpropan-2-yl)-4-(5-(trifluoromethyl)-1,2,4-oxadiazol-3-yl)benzamide] | 4 µM | 0.085 µM | > 6.8 µM
CC(C)N(C)C(=O)c1ccc(-c2noc(C(F)(F)F)n2)cc1 [Example 24, N-isopropyl-N-methyl-4-(5-(trifluoromethyl)-1,2,4-oxadiazol-3-yl)benzamide] | > 10 µM | 0.77 µM | > 10 µM
CNCCNC(=O)c1ccc(-c2noc(C(F)(F)F)n2)cc1 [Example 157, N-(2-(methylamino)ethyl)-4-(5-(trifluoromethyl)-1,2,4-oxadiazol-3-yl)benzamide] | 3.4 µM | 0.04 µM | 6.1 µM
CCCN(C)C[C@@H](C)NC(=O)c1ccc(-c2noc(C(F)(F)F)n2)cc1F [Example 143, (R)-2-fluoro-N-(1-(methyl(propyl)amino)propan-2-yl)-4-(5-(trifluoromethyl)-1,2,4-oxadiazol-3-yl)benzamide] | 3.3 µM | 0.0012 µM | 5.8 µM
O=C(NC1CCCCC1O)c1ccc(-c2noc(C(F)(F)F)n2)cc1 (stereo not drawn) [Example 61, N-(2-hydroxycyclohexyl)-4-(5-(trifluoromethyl)-1,2,4-oxadiazol-3-yl)benzamide] | 7.1 µM | 0.79 µM | > 10 µM
CC(C)NC(=O)c1ccc(-c2noc(C(F)(F)F)n2)cc1 [Example 20, N-isopropyl-4-(5-(trifluoromethyl)-1,2,4-oxadiazol-3-yl)benzamide] | > 10 µM | 1 µM | > 10 µM
O=C(Nc1ccnc(C(F)(F)F)c1)c1ccc(-c2noc(C(F)(F)F)n2)cc1 [Example 74, 4-(5-(Trifluoromethyl)-1,2,4-oxadiazol-3-yl)-N-(2-(trifluoromethyl)pyridin-4-yl)benzamide] | 8.6 µM | 0.19 µM | > 10 µM
O=C(c1ccc(-c2noc(C(F)(F)F)n2)cc1)N1CCN(c2ccccc2)CC1 [Example 42, (4-phenylpiperazin-1-yl)(4-(5-(trifluoromethyl)-1,2,4-oxadiazol-3-yl)phenyl)methanone] | > 10 µM | 4.2 µM | > 10 µM
O=C(Nc1ccncc1)c1ccc(-c2noc(C(F)(F)F)n2)cc1 [Example 47, N-(ppyridin-4-yl)-4-(5-(trifluoromethyl)-1,2,4-oxadiazol-3-yl)benzamide] | 2.1 µM | 0.054 µM | > 10 µM

SMILES | IC50 [1] | IC50 [2] | IC50 [3]
CCCN(C)C[C@@H](C)NC(=O)c1ccc(-c2noc(C(F)(F)F)n2)cc1 [Example 139, (R)—N-(1-(methyl(propyl)amino)propan-2-yl)-4-(5-(trifluoromethyl)-1,2,4-oxadiazol-3-yl)benzamide] | 9.6 µM | 0.001 µM | 4 µM
O=C(NCC1CCCCN1)c1ccc(-c2noc(C(F)(F)F)n2)cc1 (stereo not drawn) [Example 78, N-(piperidin-2-ylmethyl)-4-(5-(trifluoromethyl)-1,2,4-oxadiazol-3-yl)benzamide] | 7 µM | 0.03 µM | > 10 µM
CCC(CO)NC(=O)c1ccc(-c2noc(C(F)(F)F)n2)cc1 (stereo not drawn) [Example 56, N-(1-tetrahydroxy-2 H-butan-2-yl)-4-(5-(trifluoromethyl)-1,2,4-oxadiazol-3-yl)benzamide] | 6.8 µM | 0.55 µM | > 10 µM
COCCN(C)C(=O)c1ccc(-c2noc(C(F)(F)F)n2)cc1 [Example 18, N-(2-methoxyethyl)-N-methyl-4-(5-(trifluoromethyl)-1,2,4-oxadiazol-3-yl)benzamide] | > 10 µM | 0.39 µM | > 10 µM
CNC(=O)Cc1ccc(-c2noc(C(F)(F)F)n2)cc1 [Example 3, N-methyl-2-[4-(5-trifluoromethyl-[1,2,4]oxadiazol-3-yl)-phenyl]-acetamide] | > 10 µM | 1.9 µM | > 10 µM
O=C(Nc1ccnc(O)c1)c1ccc(-c2noc(C(F)(F)F)n2)cc1 [Example 72, N-(2-hydroxypyridin-4-yl)-4-(5-(trifluoromethyl)-1,2,4-oxadiazol-3-yl)benzamide] | > 10 µM | 0.14 µM | > 10 µM
CC(CNC(=O)c1ccc(-c2noc(C(F)(F)F)n2)cc1)N(C)C (stereo not drawn) [Example 51, N-(2-(dimethylamino)propyl)-4-(5-(trifluoromethyl)-1,2,4-oxadiazol-3-yl)benzamide] | 10 µM | 0.09 µM | > 10 µM
CN(CCO)C(=O)c1ccc(-c2noc(C(F)(F)F)n2)cc1 [Example 15, N-(2-hydroxyethyl)-N-methyl-4-(5-(trifluoromethyl)-1,2,4-oxadiazol-3-yl)benzamide] | > 10 µM | 0.99 µM | > 10 µM
CC(=O)N1CCC(NC(=O)c2ccc(-c3noc(C(F)(F)F)n3)cc2)CC1 [Example 64, N-(1-acetylpiperidin-4-yl)-4-(5-(trifluoromethyl)-1,2,4-oxadiazol-3-yl)benzamide] | > 10 µM | 0.51 µM | > 10 µM
CC(C)N(C)C[C@@H](C)NC(=O)c1ccc(-c2noc(C(F)(F)F)n2)cc1 [Example 138, (R)—N-(1-(isopropyl(methyl)amino)propan-2-yl)-4-(5-(trifluoromethyl)-1,2,4-oxadiazol-3-yl)benzamide] | > 10 µM | 0.0045 µM | > 10 µM
CN(C)C(=O)Cc1ccc(-c2noc(C(F)(F)F)n2)cc1 [Example 4, N,N-Dimethyl-2-[4-(5-trifluoromethyl-[1,2,4]oxadiazol-3-yl)-phenyl]-acetamide] | 7.9 µM | 0.62 µM | > 10 µM
CC(CO)NC(=O)c1ccc(-c2noc(C(F)(F)F)n2)cc1F (stereo not drawn) [Example 91, 2-fluoro-N-(1-hydroxyypropan-2-yl)-4-(5-(trifluoromethyl)-1,2,4-oxadiazol-3-yl)benzamide] | 5.1 µM | 0.5 µM | > 10 µM
CCCN(CC)C[C@@H](C)NC(=O)c1ccc(-c2noc(C(F)(F)F)n2)cc1 [Example 145, (R)—N-(1-(ethyl(propyl)amino)propan-2-yl)-4-(5-(trifluoromethyl)-1,2,4-oxadiazol-3-yl)benzamide] | 3.7 µM | 0.00075 µM | 2.4 µM
CN1CCC[C@@H](NC(=O)c2ccc(-c3noc(C(F)(F)F)n3)cc2)C1 [Example 154, (R)—N-(1-methylpiperidin-3-yl)-4-(5-(trifluoromethyl)-1,2,4-oxadiazol-3-yl)benzamide] | 7.2 µM | 0.11 µM | > 10 µM
CN(C)CCN(C)S(=O)(=O)c1ccc(-c2noc(C(F)(F)F)n2)cc1 [Example 99, N-(2-(dimethylamino)ethyl)-N-methyl-4-(5-(trifluoromethyl)-1,2,4-oxadiazol-3-yl)benzenesulfonamide] | 9.9 µM | 1.35 µM | > 10 µM
CN(C)C(=O)c1ccc(-c2noc(C(F)(F)F)n2)cc1 [Example 1, N,N-dimethyl-4-(5-(trifluoromethyl)-1,2,4-oxadiazol-3-yl)benzamide] | > 10 µM | 0.36 µM | > 10 µM
